{
  "source": "patent US6440391B1",
  "about": "“Management of snoring by oral administration of dimethyl sulfone” (Elstan Corporation, priority 2000, dated 2002)",
  "key": {"snoring [1]": {"tested_on": "snoring", "conditions": "cited from earlier work"}, "snoring [2]": {"tested_on": "snoring", "experiment": "Oral spray of methylsulfonylmethane solution onto the oropharynx before sleep; snoring observed by subject's mate", "assay_type": "in vivo, human", "design": "key to Results (relief of snoring): FR = Full Relief; MR = Moderate Relief; NR = No Relief", "conditions": "for Results (relief of snoring): one line per subject", "description": "The initial experiments to determine effectiveness of the instillation of methylsulfonylmethane as a snoring reduction agent was carried out with an initial sampling of 10 individuals.\nIn each of the above cases, the subject was instructed to spray the solution containing the methylsulfonylmethane four (4) times into the oropharynx approximately fifteen (15) minutes to thirty (30) minutes prior to retiring for sleep. Each spray contained about 0.2 ml; to 0.25 ml of the solution. Thus, the total amount instilled is about 0.8 ml to […]. The observation of the presence or absence of snoring was made by the subject's mate. The observing party was not told that the subject was employing […] methylsulfonylmethane. As noted in Table I, 70% of the subject's mates reported the lessening or absence of snoring while 30% reported no benefit from the oral administration of the methylsulfonylmethane.\nThe seven patients who reported full relief or moderate relief where thereafter provided with a saline spray as a placebo without their knowledge. In each case the snoring returned. They were again given the methylsulfonylmethane spray and 70% again achieve full relief.\nA second sampling of subjects was undertaken wherein the weight percentage of methylsulfonylmethane in water was varied at 1%, 5% and 10%.\nBy warming the solution of water and methylsulfonylmethane to no more than about 37° C. (98.6° F.), a greater concentration of methylsulfonylmethane will go into solution."}, "[3]": {"conditions": "15% MSM, oral spray, 10 individuals (Table I)"}},
  "note": "Where “and” joins values, the source holds several entries; their conditions need not be identical. Equal entries are not always repeated.",
  "data": [
    {"smiles": "CS(C)(=O)=O", "note": "[MSM, methylsulfonylmethane]", "values": [
      {"measurement": "effectiveness of intranasal treatment", "setting": "snoring [1]; 1% to 20% by weight, drops into the nasal cavity", "result": "highly effective"},
      {"measurement": "time interval of reduced snoring", "setting": "snoring [1]; nasal administration saturating mucous membranes of the nasal passageways", "result": "8 to 12", "unit": "h"},
      {"measurement": "local tolerability on nasal instillation", "setting": "snoring [1]; nasal route, some individuals", "result": "slight burning sensation"},
      {"measurement": "Results (relief of snoring)", "setting": "snoring [2]; 1% MSM by weight in water, oral", "result": "FR and NR (3×)"},
      {"measurement": "relief of snoring at lowest concentration", "setting": "snoring [2]; 1% by weight in water, oral, Table II", "result": "the relief was not reported to be as dramatic as at higher concentrations"},
      {"measurement": "effectiveness of concentration range against snoring", "setting": "snoring [2]; 1%-20% by weight in water, oral, Tables I-III", "result": "effective"},
      {"measurement": "Results (relief of snoring)", "setting": "snoring [2]; 5% MSM by weight in water, oral", "result": "NR (2×) and FR (2×)"},
      {"measurement": "Results (relief of snoring)", "setting": "snoring [2]; 10% MSM by weight in water, oral", "result": "FR (3×) and NR"},
      {"measurement": "Results (relief of snoring)", "setting": "snoring [2]; 15% MSM by weight, oral spray 4 times (0.8-1.2 ml) 15-30 min before sleep", "result": "FR (6×) and NR (3×) and MR"},
      {"measurement": "subject's mates reporting lessening or absence of snoring", "setting": "snoring [2]; [3]", "result": 70, "unit": "%"},
      {"measurement": "subject's mates reporting no benefit", "setting": "snoring [2]; [3]", "result": 30, "unit": "%"},
      {"measurement": "Results (relief of snoring)", "setting": "snoring [2]; 20% MSM by weight in water, solution warmed to no more than about 37° C., oral", "result": "FR"},
      {"measurement": "patients again achieving full relief when given the spray again", "setting": "snoring [2]; the seven responders, re-given MSM spray after saline placebo (snoring returned on placebo)", "result": 70, "unit": "%"}
    ]}
  ]
}
